Measured values from patent US20110081675A1, “Metabolic Biomarkers Of Drug-Induced Cardiotoxicity” (WISCONSIN ALUMNI RESEARCH FOUNDATION, priority 2009, published 2011).

Columns and labels:
[1] = tested on: human cardiomyocytes (Celprogen 36044-15at); assay: LC-ESI-TOF-MS metabolomics of extracellular media of drug-treated human cardiomyocytes (Tables 2A-2C); type: cell-based; settings: for doxfold: 26uM Doxorubicin; for tamfold: 15uM tamoxifen
Experimental: Data for statistical analysis were extracted from chromatograms using the Agilent Mass Hunter software (Product No. G3297AA, Agilent Technologies, Inc., Santa Clara, Calif.); it will be understood that alternative statistical analysis methods can be used. Masses were binned together if they were within 10 ppm and eluted within a 2 minutes retention time window. A binned mass was considered to be the same molecule across different LC-ESI-TOF-MS analyses (referred to herein as an “exact mass,” which will be understood to be ±10 ppm). Binning of the data is required for statistical analysis and comparison of masses across the entire experiment. If multiple peaks with the same mass at the same retention time within a single sample were detected by Mass Hunter, they were averaged to assist data analysis. Masses lacking a natural isotopic distribution or with an absolute height of less than 1000 were removed from the data prior to analysis. It would be understood that the results from this assay provide relative values that are assessed according to annotated values within 10 ppm to provide an identity for the molecular weight detected. Thus, a mass shift within 10 ppm is considered consistent with determining the identity of a specific cellular metabolite previously annotated due to differences in ionization source and instrumentation, e.g. between different experiments or using different instruments.
As used herein, a mass was considered to be the same across LC/ESI-TOF-MS runs using a simple algorithm that first sorts the data by mass and retention time. […] If a series of measurements fit this definition it was considered to be from the same compound. If either the mass or the retention time varied by more than the limits listed above it was considered to be a different compound and given a new unique designation.
The data from the most reproducible mass features was log base 2 transformed and median centered prior to statistical analysis. […] To test the null hypothesis a one way permutation based t-test assuming a normal approximation of the conditional distribution was used and implement using the Conditional Inference Procedures in a Permutation Test Framework (Coin) library, a contributed package of programming code. Statistics tests were performed without replacement of missing values decrease the degrees of freedom rather than imputing missing values. […] False discovery rates (FDR) were controlled using the Q value estimator (Storey et al., 2003, Proc Natl Acad. Sci., 100:9440-5) and implemented using the qvalue library in R (Dabney et al., 2003, qvalue: Q-value estimation for false discovery rate control. R package version 1.10.0., www.CRAN.R-project.org).
The extracellular media from treated and untreated cells was processed as described in Cezar et al., (2007, Stem Cells Development 16: 869-882, this publication is incorporated by reference), for extraction of low molecular weight molecules (<3 kD) for metabolomics analysis. Extracellular low molecular weight molecule preparations were separated by liquid chromatography followed by electrospray ionization time of flight (LC-ESI-TOF-MS) mass spectrometry for ionization and detection of the full spectra of low molecular weight molecules present in each sample. More specifically, the samples were separated using the ESI_Luna_HILIC—95_t—06OACN—16 min method (HILIC chromatography). Statistical differences were inferred by subsequent bioinformatics and in silico mapping of deisotoped ESI-TOF-MS mass features as described below (also provided in Cezar et al. (2007, id.)).
Briefly, ionization (100 m/z-1500 m/z) was acquired on an Agilent 6520 Accurate-Mass Q-TOF in extended dynamic range and positive mode. Mass features were generated using two independent methods. First MassHunter Qualitative Analysis was used to generate mass features using the Molecular Feature Extraction algorithm (MFE).

[2] = tested on: human cardiomyocytes
Experimental: The percentage of cell death, inherently and after drug treatment, was calculated by Trypan Blue staining (FIG. 2).
The doses for each compound were based upon published standards, equivalent to therapeutic circulating levels whenever possible (see Table 1).

[3] = feature cpdID 36, neutral mass 101.1204, RT 0.720145, Triethylamine or Hexylamine
[4] = feature cpdID 8902, neutral mass 276.1256, RT 8.733378, no hit
[5] = feature cpdID 11232, neutral mass 311.1029, RT 7.400847, p-Glucosyloxymandelonitrile or (S)-4-Hydroxymandelonitrile beta-D-glucoside
[6] = feature cpdID 14190, neutral mass 356.253, RT 1.103957, HMDB04239, 13,14-dihydro PGE1 or Prostaglandin F1alpha
[7] = feature cpdID 16504, neutral mass 393.0913, RT 7.25538, no hit
[8] = feature cpdID 16939, neutral mass 400.2796, RT 1.108613, 7-Ketocholesterol
[9] = feature cpdID 17096, neutral mass 403.1776, RT 6.2306, no hit
[10] = feature cpdID 19500, neutral mass 444.3034, RT 1.106333, […]-Dihydroxyvitamin D3-26,23-lactone
[11] = feature cpdID 19704, neutral mass 448.1344, RT 7.184483, no hit
[12] = feature cpdID 21926, neutral mass 488.3323, RT 1.106573, no hit
[13] = feature cpdID 23163, neutral mass 516.1241, RT 7.217222, Formononetin 7-O-glucoside-6″-O-malonate, Isochlorogenic acid b or 13-Dicaffeoylquinic acid
[14] = feature cpdID 24142, neutral mass 538.2779, RT 0.783395, no hit
[15] = feature cpdID 25561, neutral mass 575.2051, RT 7.271724, no hit
[16] = feature cpdID 25601, neutral mass 576.3861, RT 1.10751, 3-Hexaprenyl-4-hydroxy-5-methoxybenzoic acid
[17] = feature cpdID 27363, neutral mass 620.4117, RT 1.108317, no hit
[18] = feature cpdID 28720, neutral mass 661.1924, RT 6.495524, no hit
[19] = feature cpdID 29101, neutral mass 672.1828, RT 6.528464, no hit
[20] = feature cpdID 29227, neutral mass 676.1781, RT 1.298314, no hit
[21] = feature cpdID 31637, neutral mass 744.1091, RT 1.26415, no hit
[22] = feature cpdID 33162, neutral mass 791.2316, RT 6.496594, no hit
[23] = feature cpdID 37905, neutral mass 932.2608, RT 6.542554, no hit
[24] = feature cpdID 37938, neutral mass 933.3726, RT 8.330596, no hit
[25] = feature cpdID 42137, neutral mass 1122.172, RT 1.256606, no hit
[26] = feature cpdID 45209, neutral mass 1300.402, RT 6.501484, no hit
[27] = feature cpdID 45486, neutral mass 1322.385, RT 6.518707, no hit

COc1cccc2c1C(=O)c1c(O)c3c(c(O)c1C2=O)C[C@@](O)(C(=O)CO)C[C@@H]3O[C@H]1C[C@H](N)[C@H](O)[C@H](C)O1 [Doxorubicin] gave a doxfold [1, 3] of −1.186 fold, a doxfold [1, 4] of 2.438 fold and a doxfold [1, 5] of 5.193 fold. It also gave a doxfold [1, 6] of 12.32 fold, a doxfold [1, 7] of 1.09 fold and a doxfold [1, 8] of 11.7 fold. It also gave a doxfold [1, 9] of −2.02 fold, a doxfold [1, 10] of 16.24 fold and a doxfold [1, 11] of 2.122 fold. It also gave a doxfold [1, 12] of 7.799 fold, a doxfold ([1]; feature cpdID 23129, neutral mass 515.181, RT 10.44297, no hit) of 1.178 fold and a doxfold [1, 13] of 2.198 fold. For the same compound, the doxfold [1, 14] was 1.559 fold, the doxfold ([1]; feature cpdID 25445, neutral mass 572.1055, RT 7.089848, no hit) was 1.199 fold and the doxfold [1, 15] was 2.11 fold. The doxfold [1, 16] was 4.776 fold, the doxfold [1, 17] was 2.836 fold and the doxfold [1, 18] was 1.096 fold. It also gave a doxfold [1, 19] of 2.172 fold, a doxfold ([1]; feature cpdID 29124, neutral mass 672.6836, RT 6.559082, no hit) of 1.282 fold and a doxfold [1, 20] of −6.816 fold. For the same compound, the doxfold [1, 21] was −1.423 fold, the doxfold [1, 22] was 1.817 fold and the doxfold [1, 23] was 1.663 fold. For the same compound, the doxfold ([1]; feature cpdID 37922, neutral mass 932.7613, RT 6.562271, no hit) was 1.324 fold, the doxfold [1, 24] was 1.117 fold and the doxfold ([1]; feature cpdID 40510, neutral mass 1040.322, RT 6.499979, no hit) was 1.351 fold. For the same compound, the doxfold [1, 25] was −3.594 fold, the doxfold [1, 26] was 1.838 fold and the doxfold [1, 27] was 1.667 fold. For the same compound, the “cell death (in words)” value [2] was “significantly higher cell death”.

With CC/C(=C(\c1ccccc1)c1ccc(OCCN(C)C)cc1)c1ccccc1 [Tamoxifen] the tamfold [1, 3] was 1.889 fold, the tamfold [1, 4] was 2.064 fold and the tamfold [1, 5] was 1.708 fold. The tamfold [1, 6] was 11.4 fold, the tamfold ([1]; feature cpdID 15112, neutral mass 372.0557, RT […], no hit) was −1.266 fold and the tamfold [1, 7] was 1.21 fold. The tamfold [1, 8] was 10.16 fold, the tamfold [1, 9] was −1.832 fold and the tamfold [1, 10] was 15.8 fold. The tamfold [1, 11] was 1.975 fold, the tamfold [1, 12] was 7.564 fold and the tamfold [1, 13] was 1.75 fold. It also gave a tamfold [1, 14] of 2.706 fold, a tamfold [1, 15] of −1.008 fold and a tamfold [1, 16] of 5.478 fold. It also gave a tamfold [1, 17] of 3.46 fold, a tamfold [1, 18] of 1.185 fold and a tamfold [1, 19] of 2.364 fold. It also gave a tamfold [1, 20] of −1.514 fold, a tamfold [1, 21] of 1.02 fold and a tamfold [1, 22] of 1.968 fold. For the same compound, the tamfold [1, 23] was 1.8 fold, the tamfold [1, 24] was 1.939 fold and the tamfold [1, 25] was −1.752 fold. It also gave a tamfold [1, 26] of 1.731 fold and a tamfold [1, 27] of 1.765 fold.
